Assays:
[1] = tested on: U373MG cells expressing hiCE; test: Growth inhibition assay with inhibitors and CPT-11; type: cell-based; conditions: U373MGhiCE cells
[2] = tested on: mammalian CEs (hCE1, hiCE, rCE); test: CE inhibition across mammalian CEs; type: biochemical; conditions: hCE1, hiCE or rCE, o-NPA substrate
[3] = Spontaneous hydrolysis in buffered aqueous solution; type: physicochemical; conditions: within 5 mins of addition to buffered aqueous (pH 7.4) solution
CE = test: Ability of compounds to act as CE substrates; type: biochemical; conditions: 200 μM compound, 50 mM Hepes pH 7.4, data not shown
hBChE = hBChE (Homo sapiens, UniProt P06276); test: Inhibition of butyrylcholinesterase; type: biochemical
hBChE, sequence (P06276 29-602): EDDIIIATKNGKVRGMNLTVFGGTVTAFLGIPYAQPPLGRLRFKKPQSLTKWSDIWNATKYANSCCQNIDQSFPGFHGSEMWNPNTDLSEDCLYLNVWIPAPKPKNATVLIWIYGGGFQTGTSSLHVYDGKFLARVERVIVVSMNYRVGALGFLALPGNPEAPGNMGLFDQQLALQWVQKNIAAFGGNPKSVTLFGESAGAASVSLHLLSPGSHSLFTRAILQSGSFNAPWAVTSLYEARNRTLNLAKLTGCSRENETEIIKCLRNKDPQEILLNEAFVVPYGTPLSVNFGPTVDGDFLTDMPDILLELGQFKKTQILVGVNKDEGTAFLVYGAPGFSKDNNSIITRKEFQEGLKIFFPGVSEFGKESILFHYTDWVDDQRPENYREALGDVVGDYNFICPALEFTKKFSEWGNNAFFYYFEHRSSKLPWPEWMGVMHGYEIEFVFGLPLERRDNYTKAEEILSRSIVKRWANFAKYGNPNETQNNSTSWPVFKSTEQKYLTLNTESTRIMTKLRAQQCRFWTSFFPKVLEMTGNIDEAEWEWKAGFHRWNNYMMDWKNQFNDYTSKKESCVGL

hAChE = hAChE (Homo sapiens, UniProt P22303); test: Inhibition of acetylcholinesterase; type: biochemical
hAChE, sequence (P22303 32-614): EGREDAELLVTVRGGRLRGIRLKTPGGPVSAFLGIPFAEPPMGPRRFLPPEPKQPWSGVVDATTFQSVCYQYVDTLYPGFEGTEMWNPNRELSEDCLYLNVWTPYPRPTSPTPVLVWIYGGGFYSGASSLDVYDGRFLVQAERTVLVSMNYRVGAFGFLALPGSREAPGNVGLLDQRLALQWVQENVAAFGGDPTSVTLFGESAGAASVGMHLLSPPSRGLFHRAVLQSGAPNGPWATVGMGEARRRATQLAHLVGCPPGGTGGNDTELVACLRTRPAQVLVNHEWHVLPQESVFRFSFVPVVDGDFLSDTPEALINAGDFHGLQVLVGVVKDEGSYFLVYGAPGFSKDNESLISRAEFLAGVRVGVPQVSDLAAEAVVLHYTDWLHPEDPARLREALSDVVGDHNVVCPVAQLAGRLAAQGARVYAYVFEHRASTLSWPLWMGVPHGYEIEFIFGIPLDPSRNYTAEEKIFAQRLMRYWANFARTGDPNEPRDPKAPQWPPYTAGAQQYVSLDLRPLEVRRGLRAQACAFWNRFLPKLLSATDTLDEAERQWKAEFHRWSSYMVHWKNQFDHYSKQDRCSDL

SMILES | CE inhibition (in words) [2] | Compound hydrolyzed spontaneously [3] | Hydrolysis on addition of CE (in words) (CE) | further results
O=C(C(=O)c1ccccc1)c1ccccc1 [Compound 1, Benzil, reference compound] |  |  |  | Reduction of toxicity of CPT-11 ([1]; versus CPT-11 alone): ~ 6 fold
O=C(Sc1ccccc1)C(=O)Sc1ccccc1 [Compound 3, S^1, S^2-Diphenyl ethane bis(thioate)] | ineffective at enzyme inhibition | greater than 40% | not enhanced | 
O=C(Oc1ccccc1)C(=O)Oc1ccccc1 [Compound 4, Diphenyl ethanedioate] | ineffective at enzyme inhibition | greater than 40% | not enhanced | 
CCCCCCC(=O)C(=O)CCCCCC [Compound 13, Tetradecane-7,8-dione] |  |  |  | Modulation of CPT-11 cytotoxicity (in words) ([1]; 10 μM inhibitor): ineffective
O=C(Nc1ccccc1)C(=O)Nc1ccccc1 [Compound 2, Oxanilide] | not an inhibitor |  |  | Activity towards hBChE (in words) (hBChE): lacked activity; Activity towards hAChE (in words) (hAChE): lacked activity

— PMC3139784 (Bioorganic & medicinal chemistry, 2011)
